Data published in patent publication US9862730B2, “Imidazothiadiazole derivatives as protease activated receptor 4 (PAR4) inhibitors for treating platelet aggregation” (BRISTOL-MYERS SQUIBB COMPANY, priority 2012, dated 2018).

Target: PAR4 (Homo sapiens (Human), UniProt Q96RI0)
Assay: FLIPR assay in PAR4-expressing HEK293 cells (PAR4 antagonist activity, calcium mobilization)
Assay type: cell-based
Settings: FLIPR assay as described in Example A
Summary of the method: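 Calcium-flux antagonist readout: compounds preincubated 30 min at room temperature with PAR4-transfected HEK293 cells in HBSS with 10 mM HEPES (0.67% DMSO final), then agonist peptide added. Agonist activity checked on compound addition; cells carry endogenous PAR1.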

Sequence of PAR4 (Q96RI0 18-385): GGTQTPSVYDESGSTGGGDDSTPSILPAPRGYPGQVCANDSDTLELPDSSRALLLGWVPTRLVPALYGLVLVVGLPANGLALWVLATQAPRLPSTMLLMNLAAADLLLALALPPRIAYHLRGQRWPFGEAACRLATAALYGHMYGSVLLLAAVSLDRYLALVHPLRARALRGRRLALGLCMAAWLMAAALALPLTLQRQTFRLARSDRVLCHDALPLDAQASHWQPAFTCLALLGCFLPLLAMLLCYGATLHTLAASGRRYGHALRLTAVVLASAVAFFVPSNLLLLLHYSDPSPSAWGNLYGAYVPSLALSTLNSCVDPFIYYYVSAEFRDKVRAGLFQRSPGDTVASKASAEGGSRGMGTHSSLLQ

Structure (SMILES)	IC50 [nM]
Cc1cc(C(F)(F)F)c2cc(-c3cn4nc(Br)sc4n3)oc2n1 [Example 306]	1100
COc1cc(OCc2cccc(OCc3cccnc3C)c2)c2cc(-c3cn4nc(OC)sc4n3)oc2c1 [Example 308]	187
COc1cc(OCc2cccc(OCc3cccc4ccccc34)c2)c2cc(-c3cn4nc(OC)sc4n3)oc2c1 [Example 310]	3.45
COc1cc(OCc2cccc(OCc3cc(F)cc(F)c3)c2)c2cc(-c3cn4nc(OC)sc4n3)oc2c1 [Example 311]	8.82
COc1cc(OCc2cccc(OCc3ccc(F)c(C(F)(F)F)c3)c2)c2cc(-c3cn4nc(OC)sc4n3)oc2c1 [Example 315]	8.88
COc1cc(OCc2cccc(OCc3ccccc3-c3ccccc3)c2)c2cc(-c3cn4nc(OC)sc4n3)oc2c1 [Example 317]	8.36
COc1cc(OCc2cccc(OCc3cc(C(F)(F)F)ccc3F)c2)c2cc(-c3cn4nc(OC)sc4n3)oc2c1 [Example 321]	6.73
COc1cc(OCc2cccc(OCc3ccccc3OC(F)(F)F)c2)c2cc(-c3cn4nc(OC)sc4n3)oc2c1 [Example 322]	9.97
COc1cc(OCc2cccc(OCc3ccc(C)c(Cl)c3)c2)c2cc(-c3cn4nc(OC)sc4n3)oc2c1 [Example 324]	3.52
COc1cc(OCc2cccc(OCc3ccccc3C(F)(F)F)c2)c2cc(-c3cn4nc(OC)sc4n3)oc2c1 [Example 326]	3.36
COc1cc(OCc2cccc(OCc3cc(F)c(F)c(F)c3)c2)c2cc(-c3cn4nc(OC)sc4n3)oc2c1 [Example 328]	4.5
COc1cc(OCc2cccc(OCc3cncnc3)c2)c2cc(-c3cn4nc(OC)sc4n3)oc2c1 [Example 329]	71.6
COc1cc(OCc2cccc(OCc3c(F)ccc(F)c3F)c2)c2cc(-c3cn4nc(OC)sc4n3)oc2c1 [Example 330]	2.62
CSc1nn2cc(-c3nc4c(OC[C@H]5CCCN5C(=O)OC(C)(C)C)cccc4o3)nc2s1 [Example 331, (R)-tert-Butyl 2-(((2-(2-(methylthio)imidazo[2,1-b][1,3,4]thiadiazol-6-yl)benzo[d]oxazol-4-yl)oxy)methyl)pyrrolidine-1-carboxylate]	84.3
CSc1nn2cc(-c3nc4c(OC[C@@H]5CCCN5C(=O)OC(C)(C)C)cccc4o3)nc2s1 [Example 332, (S)-tert-Butyl 2-(((2-(2-(methylthio)imidazo[2,1-b][1,3,4]thiadiazol-6-yl)benzo[d]oxazol-4-yl)oxy)methyl)pyrrolidine-1-carboxylate]	253
CSc1nn2cc(-c3nc4c(OC[C@H]5CCCN5C(=O)[C@H](NC(=O)OC(C)(C)C)c5ccccc5)cccc4o3)nc2s1 [Example 333, tert-Butyl ((R)-2-((R)-2-(((2-(2-(methylthio)imidazo[2,1-b][1,3,4]thiadiazol-6-yl)benzo[d]oxazol-4-yl)oxy)methyl)pyrrolidin-1-yl)-2-oxo-1-phenylethyl)carbamate]	566
CSc1nn2cc(-c3nc4c(OC[C@@H]5CCCN5C(=O)[C@H](NC(=O)OC(C)(C)C)c5ccccc5)cccc4o3)nc2s1 [Example 334, tert-Butyl ((R)-2-((S)-2-(((2-(2-(methylthio)imidazo[2,1-b][1,3,4]thiadiazol-6-yl)benzo[d]oxazol-4-yl)oxy)methyl)pyrrolidin-1-yl)-2-oxo-1-phenylethyl)carbamate]	2360
CSc1nn2cc(-c3nc4c(OC[C@H]5CCCN5C(=O)[C@H](NC(=O)c5ccccc5)c5ccccc5)cccc4o3)nc2s1 [Example 335, N—((R)-2-((R)-2-(((2-(2-(Methylthio)imidazo[2,1-b][1,3,4]thiadiazol-6-yl)benzo[d]oxazol-4-yl)oxy)methyl)pyrrolidin-1-yl)-2-oxo-1-phenylethyl)benzamide]	537
CSc1nn2cc(-c3nc4c(OC[C@H]5CCCN5C(=O)[C@H](NC(=O)c5cccs5)c5ccccc5)cccc4o3)nc2s1 [Example 336, N—((R)-2-((R)-2-(((2-(2-(Methylthio)imidazo[2,1-b][1,3,4]thiadiazol-6-yl)benzo[d]oxazol-4-yl)oxy)methyl)pyrrolidin-1-yl)-2-oxo-1-phenylethyl)thiophene-2-carboxamide]	897
CSc1nn2cc(-c3nc4c(OC[C@@H]5CCCN5C(=O)[C@H](NC(=O)c5cccs5)c5ccccc5)cccc4o3)nc2s1 [Example 338, N—((R)-2-((S)-2-(((2-(2-(Methylthio)imidazo[2,1-b][1,3,4]thiadiazol-6-yl)benzo[d]oxazol-4-yl)oxy)methyl)pyrrolidin-1-yl)-2-oxo-1-phenylethyl)thiophene-2-carboxamide]	1160
COc1cc(OC[C@H]2CCCN2C(=O)c2ccc(F)cc2)c2cc(-c3cn4nc(OC)sc4n3)oc2c1 [Example 341]	22
COc1cc(OC[C@@H]2CCCN2C(=O)OC(C)(C)C)c2cc(-c3cn4nc(OC)sc4n3)oc2c1 [Example 342-343]	253
COc1cc(OCc2ccc(OC)c(OCc3ccccc3)c2)c2cc(-c3cn4nc(OC)sc4n3)oc2c1 [Example 351]	2.23
COc1cc(OCc2ccc(C)c(OCc3ccccc3)c2)c2cc(-c3cn4nc(OC)sc4n3)oc2c1 [Example 352]	3.61
COc1cc(OCc2cccc(OCc3ccc(OCc4ccccc4)c(OC)c3)c2)c2cc(-c3cn4nc(OC)sc4n3)oc2c1 [Example 357]	4.92
COc1cc(OCc2cccc(OCc3ccccc3Br)c2)c2cc(-c3cn4nc(OC)sc4n3)oc2c1 [Example 360]	2.47
COc1cc(OCc2cccc(OCc3ccc(Cl)c(Cl)c3)c2)c2cc(-c3cn4nc(OC)sc4n3)oc2c1 [Example 365]	3.27

Next, values leading:

IC50 [nM]	Structure (SMILES)
1.22	COc1cc(OCc2cccc(OCc3ccccc3OC)c2)c2cc(-c3cn4nc(OC)sc4n3)oc2c1 [Example 309]
2.13	COc1cc(OCc2cccc(OCc3ccc(C)cc3C)c2)c2cc(-c3cn4nc(OC)sc4n3)oc2c1 [Example 312]
2.11	COc1cc(OCc2cccc(OCc3ccc(C(C)C)cc3)c2)c2cc(-c3cn4nc(OC)sc4n3)oc2c1 [Example 313]
0.72	COc1cc(OCc2cccc(OCc3cccc(F)c3F)c2)c2cc(-c3cn4nc(OC)sc4n3)oc2c1 [Example 314]
1.48	COc1cc(OCc2cccc(OCc3ccc(Cl)cc3F)c2)c2cc(-c3cn4nc(OC)sc4n3)oc2c1 [Example 323]
0.87	COc1cc(OC[C@@H]2COC(C)(C)O2)c2cc(-c3cn4nc(OC)sc4n3)oc2c1 [Example 339, (R)-6-(4-((2,2-Dimethyl-1,3-dioxolan-4-yl)methoxy)-6-methoxybenzofuran-2-yl)-2-methoxyimidazo[2,1-b][1,3,4]thiadiazole]
2.21	COc1cc(OC[C@H]2CCCN2C(=O)OC(C)(C)C)c2cc(-c3cn4nc(OC)sc4n3)oc2c1 [Example 340]
1.12	COc1cc(OCc2cccc(OCc3ccccc3)c2)c2cc(-c3cn4nc(Br)sc4n3)oc2c1 [Example 344]
0.97	COc1cc(OCc2cccc(OCc3ccccc3)c2)c2cc(-c3cn4nc(SC)sc4n3)oc2c1 [Example 345]
0.32	COc1cc(OCc2cccc(OCc3cccc(Cl)c3)c2)c2cc(-c3cn4nc(OC)sc4n3)oc2c1 [Example 349]
1.35	COc1cc(OCc2cccc(OCc3ccc(OC)c(OC)c3Cl)c2)c2cc(-c3cn4nc(OC)sc4n3)oc2c1 [Example 361]
1.24	COc1cc(OCc2cccc(OCc3ccccc3Cl)c2)c2cc(-c3cn4nc(OC)sc4n3)oc2c1 [Example 362]
